Measured values as given in article PMC4628094, “In Vitro Assessment of Uptake and Lysosomal Sequestration of Respiratory Drugs in Alveolar Macrophage Cell Line NR8383” (Pharmaceutical Research, 2015).
Like-named read-outs stand apart in the source and are kept apart here.

How the values were obtained:
[1] = system: NR8383 cell line and granule fraction (containing lysosomes); details: NH4Cl 10 mM, drug 50 µM, ref (12), cited from earlier work
[2] = system: NR8383 cells; assay: Lysosomal sequestration studies in NR8383 with NH4Cl, monensin and nigericin; details: for % Reduction in Kp by NH4Cl: NH4Cl 20 mM; for reduction in Kp in the presence of chemical agents (summary in Discussion): NR8383, NH4Cl, monensin, nigericin
Method: (§1) The extent of accumulation of drugs in lysosomes was assessed using the same uptake methodology, as described above in the absence and presence of NH4Cl and ionophores, monensin and nigericin. […] In addition, a range of incubation conditions was explored, including pre-incubation and co-incubation alone and combined together. Once the conditions were optimised, further experiments were performed with 20 mM NH4Cl co-incubated with investigated drugs. […] For incubations with monensin and nigericin, all drugs were prepared at 5 μM concentration and the incubations were carried out for 5 min (single time point). Following the treatment of the cell monolayers with drug alone or drug with the agents mentioned, incubations were stopped by washing of the cells with ice-cold DPBS as described above, followed by cell lysis in deionised water. All incubations were carried out in duplicate and experiments were performed for three separate occasions. The removed incubation media were retained for the measurement of drug concentrations and subsequent determination of Kp for each compound. Analysis of samples in LC-MS/MS was performed after cells were kept at −20°C overnight.
(§2) Kp and CLuptake were determined as described above for each drug both under control condition and in the presence of a chemical agent affecting the pH gradient between cytosol and lysosomes. The reduction in Kp and CLuptake of each drug in the presence of the chemical agents was expressed as a percentage relative to control and used as an indicator of the extent of lysosomal sequestration. A 50% reduction in both parameters was set as a cut-off for lysosomal accumulation, while also taking into account the physicochemical properties of the compounds (Table I) and the uncertainty associated with the experimental data.
(§3) The in vitro parameters were calculated on at least three separate occasions and the mean data were reported. When assessing the extent of lysosomal sequestration, the control and chemical agent treated cells were compared using the two-tailed, paired t-test in order to determine statistically significant difference between the two conditions. Values were reported as significant when p < 0.05.

[3] = as above; details: rat; for Kp at 10 min, 5 μM: NR8383, 5 μM drug; for Kp at 10 min, 20 µM: NR8383, 20 µM drug
Method: as §1, §2, §3

[4] = Physicochemical properties, experimental literature values (Table I); details: classification in Table I
[5] = system: NR8383 cells; assay: Drug uptake in NR8383 at 37 and 4°C (CLuptake, CLdiff, Kp); details: NR8383, 5 μM; CLdiff relative to CLuptake
Method: (§4) The studies were carried out in a 24-well plate format and the in vitro conditions were optimised in terms of cell detachment method from culture flasks, coating type of 24-well plates, seeding density, culturing time and drug incubation time points. Briefly, for cell detachment, gentle scraping versus Mg^2+-Ca^2+ free DPBS treatment of cells in culture flasks were tested. Considering the semi-adherent nature of AMs, cell seeding into non-coated, collagen-I and poly-D-lysine coated 24-well plates was investigated for cell attachment, distribution in the wells and detachment following DPBS washes during the uptake experiments. In addition, seeding densities of 0.36 and 0.72 × 10^6 cells per well were assessed with respect to cell attachment, confluency following culture (plating efficiency) and potential cell detachment following DPBS washes. Culturing time ranging from 4 to 24 h was investigated for optimal cell attachment before carrying out uptake experiments. Uptake rate and Kp data were normalised by cell number determined indirectly by measuring the amount of protein in samples by bicinchoninic acid (BCA) protein assay (Thermo Scientific, Loughborough, UK). Following the optimisation, detachment of NR8383 from cell culture flasks was performed by gentle scraping prior to cell counting and seeding into collagen-I coated 24-well plates at 0.5 × 10^6 cells per well. Cells were cultured for 16 h at 37°C, 5% CO2 (CO2 incubator, MCO-17AIC, Sanyo Biomedical, Loughborough, UK) before uptake studies performed over 1 to 10 min period.
(§5) The drug uptake in NR8383 corresponding to these conditions was described by total uptake (CLuptake) and passive diffusion (CLdiff) clearance terms, respectively. […] Substrate solutions were prepared by dilution of the stock solutions in DPBS resulting in final DMSO content < 1%. Uptake studies were performed in the presence of 1 mM ABT, a nonspecific P450 inhibitor, in order to avoid any potential impact of phase I metabolism. […] Following microscopy, the CGM was removed, cells were washed twice with 800 μL of either pre-warmed or ice-cold DPBS (for experiments at 37 and 4°C, respectively) and pre-incubation with 500 μL of pre-warmed or ice-cold ABT/DPBS was carried out for 20 min. Where ABT pre-treatment was not necessary, cell monolayers were treated with 500 μL of DPBS only. Once pre-incubation buffer was removed from the cell monolayers, incubations were started by addition of 400 μL of substrate solution (pre-warmed or ice-cold) in each well. Each substrate was incubated with the cells for 1, 2, 5 and 10 min and each time point at 37°C and 4°C. For 37°C experiments, incubation was carried out on a dry heater block maintained at 37°C throughout the experiment (Tecam Dri-block DB-3, Tecam, Princeton, NJ) and for 4°C experiments, the procedure was carried out on ice. Incubation with substrate was stopped by removal of the media with drug solution and washing the monolayers three times with 800 μL ice-cold DPBS. The back-diffusion of the drug from the cell into the medium was considered to be negligible under these conditions. The removed incubation media were retained for the measurement of drug medium concentrations and subsequent determination of Kp for each drug. The cells were lysed by addition of 200 μL ice-cold deionised water; cell lysates were kept at −20°C overnight and then processed further for LC-MS/MS analysis. Experiments were performed on three or more separate occasions for each drug investigated. […] The amount of protein per well was measured using a BSA calibration curve and absorbances read at 562 nm (S22 Boeco UV-Visible Spectrophotometer, Hamburg, Germany).

[6] = as above; details: rat
Method: as §4, §5

[7] = system: Lung tissue slices from male Wistar rats; design: method as in ref (14) (a number printed in a supplementary file, which may have a reference list of its own: not looked up in the article's list); details: monensin 10 µM, drug 5 µM, 60 min, ref (14); cited from earlier work
[8] = system: Liver tissue slices from male Wistar rats; design: method as in ref (5) (a number printed in a supplementary file, which may have a reference list of its own: not looked up in the article's list); details: NH4Cl 20 mM, drug 5 µM, 60 min, ref (5); cited from earlier work
[9] = system: Lung tissue slices from male Wistar rats; design: method as in ref (5) (a number printed in a supplementary file, which may have a reference list of its own: not looked up in the article's list); details: NH4Cl 20 mM, drug 5 µM, 60 min, ref (5); cited from earlier work
[10] = system: Liver tissue slices from male Wistar rats; design: method as in ref (14) (a number printed in a supplementary file, which may have a reference list of its own: not looked up in the article's list); details: monensin 10 µM, drug 5 µM, 60 min, ref (14); cited from earlier work
[11] = system: Lung granule fraction containing lysosomes from male Wistar rats; design: method as in ref (6) (a number printed in a supplementary file, which may have a reference list of its own: not looked up in the article's list); details: NH4Cl 10 mM, drug 1 µM, 10 min; ref (6); cited from earlier work
[12] = experimental value; ref ([21])-([30]) per drug, Table I; cited from earlier work
[13] = system: Lung tissue slices from male Wistar rats; design: method as in ref (8) (a number printed in a supplementary file, which may have a reference list of its own: not looked up in the article's list); details: NH4Cl 20 mM, drug 5 µM, 60 min, ref (8); cited from earlier work
[14] = system: Lung tissue slices from male Wistar rats; design: method as in ref (9) (a number printed in a supplementary file, which may have a reference list of its own: not looked up in the article's list); details: drug 5 µM, 60 min, ref (9), cited from earlier work; for Reduction in total uptake (%): NH4Cl 20 mM
[15] = system: NR8383 cells; assay: LysoTracker Red (LTR) confocal assessment of lysosomal sequestration in NR8383; format: cell-based, rat; details: NH4Cl 20 mM, monensin 5 μM, nigericin 10 μM with 200 nM LTR
[16] = system: Brain slices from male Wistar rats; design: method as in ref (10) (a number printed in a supplementary file, which may have a reference list of its own: not looked up in the article's list); details: drug 5 µM, 60 min, ref (10), cited from earlier work
[17] = system: Liver tissue slices from male Wistar rats; design: method as in ref (9) (a number printed in a supplementary file, which may have a reference list of its own: not looked up in the article's list); details: drug 5 µM, 60 min, ref (9), cited from earlier work
[18] = NR8383 cells, Kp Control, control

For `CC[C@H]1OC(=O)[C@H](C)[C@@H](O[C@H]2C[C@@](C)(OC)[C@@H](O)[C@H](C)O2)[C@H](C)[C@@H](O[C@@H]2O[C@H](C)C[C@H](N(C)C)[C@H]2O)[C@](C)(O)C[C@@H](C)CN(C)[C@H](C)[C@@H](O)[C@]1(C)O` [Azithromycin], the “Reduction in total uptake (%)” value ([1]; Granule, after subcellular fractionation, 30 min) is given as 72% and the “Reduction in total uptake (%)” value ([1]; before subcellular fractionation, azithromycin 120 min, clarithromycin 60 min) is given as 97%.
For `CCCC1O[C@@H]2C[C@H]3[C@@H]4CCC5=CC(=O)C=C[C@]5(C)[C@H]4[C@@H](O)C[C@]3(C)[C@]2(C(=O)CO)O1` (stereo partly drawn) [Budesonide], the “% Reduction in Kp by NH4Cl” value ([2]; NR8383, 5 μM drug) was 10 ± 7.8%, the “% Reduction in Kp by NH4Cl” value ([2]; NR8383, 20 µM drug) was 6.6 ± 4.1% and the “% Reduction in CLuptake by NH4Cl (20 mM)” value ([2]; NR8383, at 5 µM drug) was 18 ± 15%. The “reduction in Kp in the presence of chemical agents (summary in Discussion)” value [2] was under 15%, the Kp at 10 min, 5 μM ([3]; NR8383 cells, Kp + NH4Cl, 20 mM NH4Cl co-incubated, 10 min) was 28.1 ± 7.12 and the Kp at 10 min, 20 µM ([3]; NR8383 cells, Kp + NH4Cl, 20 mM NH4Cl) was 31 ± 12. For the same molecule, the Kp at 10 min, 5 μM [3, 18] was 31.5 ± 8.46, the Kp at 10 min, 20 µM [3, 18] was 34 ± 12.5 and the “Acid–base Property” value [4] was “Neutral”. For the same molecule, the “Contribution of passive (%)” value [5] was 97.2% and the Kp at 10 min, 5 μM ([6]; NR8383 cells, Kp (cell-to-medium concentration ratio), NR8383, 5 μM, 37°C, 10 min) was 37.6 ± 11.4.
For `NC(=O)N1c2ccccc2C=Cc2ccccc21` [Carbamazepine], the “Reduction of total uptake (%)” value [7] is listed as 5.4%, the “Reduction in total uptake (%)” value [8] is listed as 16.1% and the “Reduction in total uptake (%)” value [9] is listed as 5.4%. The “Reduction of total uptake (%)” value [10] was 0%.
For `CN(C)CCCN1c2ccccc2Sc2ccc(Cl)cc21` [Chlorpromazine], the “Reduction in total uptake (%)” value [11] is listed as 8%.
For `CC(Cc1ccc(O)cc1)NCC(O)c1cc(O)cc(O)c1` (stereo not drawn) [Fenoterol], the “% Reduction in Kp by NH4Cl” value ([2]; NR8383, 5 μM drug) was 31 ± 23%, the “% Reduction in Kp by Monensin” value ([2]; NR8383, 5 μM drug, monensin 5 μM, 5 min) was 27 ± 25% and the “% Reduction in Kp by Nigericin” value ([2]; NR8383, 5 μM drug, nigericin 10 μM, 5 min) was 30 ± 12%. The “% Reduction in Kp by NH4Cl” value ([2]; NR8383, 20 µM drug) was 27 ± 24%, the “% Reduction in CLuptake by Monensin (5 µM)” value ([2]; NR8383, at 5 µM drug) was 29 ± 21% and the “% Reduction in CLuptake by NH4Cl (20 mM)” value ([2]; NR8383, at 5 µM drug) was 36 ± 12%. For the same molecule, the “% Reduction in CLuptake by Nigericin (10 µM)” value ([2]; NR8383, at 5 µM drug) was 25 ± 15%, the “% Reduction in CLuptake by NH4Cl (20 mM)” value ([2]; NR8383, at 20 µM drug) was 22 ± 28% and the “reduction in Kp in the presence of chemical agents (summary in Discussion)” value [2] was 20–40%. It also gave a Kp at 10 min, 5 μM ([3]; Kp + NH4Cl, 20 mM NH4Cl co-incubated, 10 min) of 2.91 ± 2.11, a Kp at 10 min, 20 µM ([3]; Kp + NH4Cl, 20 mM NH4Cl) of 0.96 ± 0.33 and a Kp at 10 min, 5 μM ([3]; Kp Control, control) of 4.25 ± 2.64. The Kp at 10 min, 20 µM ([3]; Kp Control, control) was 1.5 ± 0.93, the LogD7.4 [12] was 0.74 and the “Acid–base Property” value [4] was “Base”. For the same molecule, the “Contribution of passive (%)” value [5] was 8.03%, the Kp at 10 min, 5 μM [6] was 5.69 ± 0.98 and the hepatocyte CLint at 5 μM ([6]; other cell line) was under 1 µL/min/1e6 cells.
In the case of `CNCCC(Oc1ccc(C(F)(F)F)cc1)c1ccccc1` (stereo not drawn) [Fluoxetine], the “Reduction of total uptake (%)” value [7] is listed as 23%, the “Reduction in total uptake (%)” value [9] is listed as 21% and the “Reduction in total uptake (%)” value [13] is listed as 41%. For the same molecule, the “Reduction in total uptake (%)” value [14] was 39%.
With `Cl.N` [NH4Cl, ammonium chloride] the “reduced LTR fluorescent signal” value [15] was “up to 85%”.
For `CC(C)=CCN1CCC2(C)c3cc(O)ccc3CC1C2C` (stereo not drawn) [Pentazocine], the “Reduction in total uptake (%)” value [11] is listed as 77%.
For `CN1CCN(CCCN2c3ccccc3Sc3ccccc32)CC1` [Perazine], the “Reduction in total uptake (%)” value ([16]; NH4Cl 20 mM) is given as 55%, the “Reduction of total uptake (%)” value ([16]; monensin 10 µM) is given as 55% and the “Reduction in total uptake (%)” value ([17]; NH4Cl 20 mM) is given as 61%. For the same molecule, the “Reduction of total uptake (%)” value ([17]; monensin 10 µM) was 65%, the “Reduction in total uptake (%)” value [14] was 58% and the “Reduction of total uptake (%)” value ([14]; monensin 10 µM) was 71.6%.
